The subject of data set [1] is ECa-109 cell line. As to the kind of experiment: Antitumor activity against human EC109 cells xenografted in nude mouse assessed as tumor growth inhibition at 10 mg/kg in presence of 5 mg/kg paclitaxel measured after 21 days relative to control. Type of data set: functional. (In xenograft studies the graft and the host belong to different species.)
Data set [2] concerns ECa-109 cell line. Kind of data set: Cytotoxicity against human EC109 cells assessed as combination index at 10 uM in presence of 2.5 nM paclitaxel. The data set is classed as functional.
The test system of data set [3] is Mus musculus. As to the kind of experiment: Hepatotoxicity in nude mouse xenografted with human EC109 cells at 10 mg/kg in presence of paclitaxel measured after 21 days by histopathological analysis. Type of data set: toxicity, organism-based. To be noted: in vivo, 504 h.
In data set [4] the test system is ECa-109 cell line. Kind of data set: Induction of apoptosis in human EC109 cells assessed as viable cells at 15 uM after 24 hrs by Annexin V-FITC/propidium iodide staining based flow cytometry (reference value: 96.1%). Type of data set: functional. Particulars: ECa-109, 24 h, read-out: Activity. On the technique in general: A flow cytometer gives signals particle by particle.

In data set [5] the test system is Mus musculus. Kind of data set: Toxicity in nude mouse xenografted with human EC109 cells assessed as pathological changes at 10 mg/kg measured after 21 days. Type of data set: organism-based. Particulars: in vivo, 504 h.
Data set [6] concerns ECa-109 cell line. Kind of data set: Induction of apoptosis in human EC109 cells assessed as decrease in pro-caspase 3 expression at 15 uM in presence of 5 nM paclitaxel by Western blot method. The data set is classed as functional, cell-based.
The test system of data set [7] is ECa-109 cell line. Kind of data set: Induction of apoptosis in human EC109 cells assessed as necrotic cells at 15 uM after 24 hrs by Annexin V-FITC/propidium iodide staining based flow cytometry (reference value: 1.6 %). Type of data set: functional.
The test system of data set [8] is Mus musculus. Kind of data set: Hepatotoxicity in nude mouse xenografted with human EC109 cells assessed as change in serum ALT level at 10 mg/kg in presence of paclitaxel measured after 21 days. Type of data set: toxicity, organism-based. Particulars: in vivo, 504 h.
Data set [9] concerns ECa-109 cell line. Kind of data set: Induction of apoptosis in human EC109 cells assessed as decrease in Bcl-2 level at 15 uM in presence of 5 nM paclitaxel by Western blot method. The data set is classed as functional, cell-based. In general terms: A western blot detects proteins with antibodies after separation by electrophoresis.
The test system of data set [10] is ECa-109 cell line. As to the kind of experiment: Induction of apoptosis in human EC109 cells assessed as nuclear condensation at 15 uM in presence of 5 nM paclitaxel after 24 hrs by Hochest 33258 staining based fluorescent microscopic analysis. The data set is classed as functional, cell-based.
In data set [11] the test system is Mus musculus. As to the kind of experiment: Toxicity in nude mouse xenografted with human EC109 cells assessed as skin ulceration at 10 mg/kg in presence of paclitaxel measured after 21 days. The data set is classed as organism-based. Particulars: in vivo, 504 h.
The test system of data set [12] is ECa-109 cell line. As to the kind of experiment: Induction of apoptosis in human EC109 cells assessed as viable cells at 15 uM after 24 hrs in presence of paclitaxel by Annexin V-FITC/propidium iodide staining based flow cytometry (reference value: 96.1%). The data set is classed as functional. To be noted: ECa-109, 24 h, read-out: Activity.
Data set [13] has as its system ECa-109 cell line. As to the kind of experiment: Cytotoxicity against human EC109 cells assessed as reduction in cell viability after 24 hrs by MTT assay. Type of data set: functional, cell-based.
The test system of data set [14] is ECa-109 cell line. As to the kind of experiment: Induction of apoptosis in human EC109 cells assessed as increase in PUMA level at 15 uM in presence of 5 nM paclitaxel by Western blot method. Type of data set: functional, cell-based.
Data set [15] has as its system Mus musculus. As to the kind of experiment: Toxicity in nude mouse xenografted with human EC109 cells assessed as effect on spleen at 10 mg/kg in presence of paclitaxel measured after 21 days by histopathological analysis. To be noted: in vivo, 504 h. Type of data set: organism-based.
The test system of data set [16] is Mus musculus. Kind of data set: Hepatotoxicity in nude mouse xenografted with human EC109 cells assessed as change in serum GGT level at 10 mg/kg in presence of paclitaxel measured after 21 days. Type of data set: toxicity, organism-based. To be noted: in vivo, 504 h.
Data set [17] has as its system ECa-109 cell line. As to the kind of experiment: Antitumor activity against human EC109 cells xenografted in nude mouse assessed as decrease in tumor weight at 10 mg/kg in presence of 5 mg/kg paclitaxel measured after 21 days. Type of data set: functional, organism-based.
Data set [18] has as its system Mus musculus. As to the kind of experiment: Hepatotoxicity in nude mouse xenografted with human EC109 cells assessed as change in serum ALP level at 10 mg/kg in presence of paclitaxel measured after 21 days. The data set is classed as toxicity, organism-based. To be noted: in vivo, 504 h.

Calls of active or inactive are those of the source. The rule behind the calls is not given here.

Consider `C=C1C(=O)[C@@]23[C@@H]4OC(c5ccc(Cl)cc5)O[C@@]25OC[C@@]2([C@H]([C@@H]5O)C(C)(C)CC[C@@H]2O)[C@@H]3CC[C@@H]14` (stereo partly drawn), for which, in the data set with ECa-109 cell line [1], the TGI – broadly, how far tumour growth fell short of that in controls – is 77.21%. Moreover, the CI with ECa-109 cell line [2] was found to be 0.56. Besides, the Activity entry with Mus musculus [3] was “Non-Toxic”; in the data set with Mus musculus [5] it was “Non-Toxic”; in the data set with ECa-109 cell line [7] it was 1.3%; with Mus musculus [8] it was “Non-Toxic”; with Mus musculus [11], “Non-Toxic”; with ECa-109 cell line [13], “Dose-dependent effect”. For the same molecule, the Activity result in the data set on Mus musculus [15], in the data set on Mus musculus [16] and in the data set with Mus musculus [18] was “Non-Toxic” each time. In addition, the viability at 15 µM is 73.1% in the data set with ECa-109 cell line [4] and 52.7% with ECa-109 cell line [12]. The outcome with ECa-109 cell line [6], in the data set with ECa-109 cell line [9], in the data set with ECa-109 cell line [10], with ECa-109 cell line [14] and in the data set with ECa-109 cell line [17] was Active.

The values are drawn from ChEMBL document CHEMBL4014287, “Jesridonin in combination with paclitaxel demonstrates synergistic anti-tumor activity in human esophageal carcinoma cells” (Bioorg Med Chem Lett, 2017).
